Laboratory results from the METLIN SMRT retention time set (Domingo-Almenara et al. 2019).

Test: gradient 5% acetonitrile 3 min, to 50% in 2 min, to 85% in 15 min, held 3 min, 100 µL/min
Details: column: Zorbax Extend-C18 2.1 x 50 mm; eluents: water / acetonitrile, 0.1% formic acid
Method in brief: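 Retention times come from adduct peaks that were picked computationally and then checked by hand. The standards, pure and pooled in mixtures of ~100 molecules, were run on a Zorbax Extend-C18 column (2.1 × 50 mm, 1.8 μm) at 100 μL/min with water and acetonitrile, each with 0.1% formic acid. Detection was by quadrupole time-of-flight mass spectrometry in positive and negative ionization mode, with a dead volume of 40 μL and a dwell volume of 900 μL.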

SMILES | RP-LC retention time [s]
COc1ccc(C2Cn3nnc(-c4nc(-c5ccc(C(F)(F)F)cc5)no4)c3CO2)cc1 (configuration not stated) | 1270
Oc1cccc(-c2nc3cnccn3c2Nc2ccc(Br)cc2)c1 | 1020
C=CCCC1(C2=CCCCC2)C(=O)NC(=O)NC1=O | 804
O=C(O)c1cnc(N2CCOCC2)nc1-c1ccccn1 | 604
O=S(=O)(c1ccc(-c2csc(Nc3cccc4ccccc34)n2)cc1)N1CCCCC1 | 1280
OC(CN1CCN(c2ccccc2Cl)CC1)c1ccc2c(c1)OCO2 (configuration not stated) | 670
CCc1nn2c(CNC(=O)c3ccc(C(F)(F)F)cc3)c(-c3ccccc3)nc2s1 | 1020
CCOC(=O)CCc1c(C)c2c(O)cc(O)cc2oc1=O | 701
COc1ccc(-c2nc(Cn3cnc4nc5c(cc4c3=O)CC(C)CC5)c(C)o2)cc1OC (configuration not stated) | 870
OC[C@@H]1CN(Cc2cccc(OC(F)(F)F)c2)C[C@H]1c1ccncc1 | 570
CCCN(C(=O)C1CCC(C)CC1)c1nc(-c2ccccc2)cs1 (configuration not stated) | 748
CC(C)n1cc(S(=O)(=O)NCc2cccs2)c2cccnc21 | 833
Cc1nnc(C(C)C)n1C1C[C@H]2CC[C@@H](C1)N2CC[C@H](NC(=O)C1CCC(F)(F)CC1)c1ccccc1 (some centres not stated) | 666
CC(C)S(=O)(=O)c1cc2c(cc1NC(=O)c1ccc(F)cc1)n(C)c(=O)n2C | 788
CCOc1ccccc1N1CCN(C(=O)C2CCN(c3ncnc4c3oc3ccccc34)CC2)CC1 | 814
O=C(Cn1c(=O)c2cc(C3CC3)nn2c2ncccc21)Nc1ccc2c(c1)OCCO2 | 736
CCC(CO)NCc1ccc(-c2ccccc2)o1 (configuration not stated) | 624
CSc1ncc(C(=O)N2CCN(c3ccccn3)CC2)c(-c2ccccc2)n1 | 837
O=C(NCC(c1cccs1)N1CCc2ccccc21)c1ccco1 (configuration not stated) | 894
COc1ccc(CNC(=O)N(c2ccccc2)c2ccccc2)c(OC)c1 | 925
Cc1nn(-c2ccc(-c3ccccc3)nn2)c(C)c1S(=O)(=O)NCCC(C)C | 1130
CSc1ccc(NC(=O)c2ccccc2C(F)(F)F)nn1 | 765

The remaining lines, values ahead:

RP-LC retention time [s] | SMILES
962 | Cc1cccc(OCc2nc(C)c(C(=O)N3CCC(C(N)=O)CC3)s2)c1
934 | Cc1ccc(NC(=O)N(C)CCc2noc(COc3ccccc3)n2)c(C)c1
887 | Cc1ccc(CNC(=O)c2ccc3ccnc(N4CCN(c5ccc(Cl)cc5)CC4)c3c2)o1
656 | Cc1cc(C(F)(F)F)nn1CC(=O)N1CCC(n2c(C)cnc2C2CCC2)C1 (configuration not stated)
1110 | Cc1ccc(-c2noc(CN3C(=O)COc4ccccc43)n2)cc1C
750 | Clc1ccc(Cn2c(CN3CCCC3)nc3ccccc32)cc1
643 | CC1CCN(Cc2nc3cc(NC(=O)c4ccco4)ccc3n2C(C)C)CC1
696 | O=C(CN1CCC2(CC1)N=C(c1ccc(Cl)cc1)C(=O)N2)Nc1cc(F)ccc1F
687 | COCCNC(=O)C1CCCN(S(=O)(=O)c2cc(OC)ccc2OC)C1 (configuration not stated)
544 | COc1ccc(CN2CCN(c3cnn4c(C5CC5)nnc4c3)CC2)cc1
884 | Cc1cc(C)cc(-n2ccn(Cc3nc(-c4ccc(F)cc4)no3)c(=O)c2=O)c1
644 | Cc1cc(C)cc(NC(=O)c2cn3c(n2)CCCC3)c1
631 | O=C(Nc1cccnc1)c1cccc(S(=O)(=O)N2CCCCCC2)c1
687 | CCOCCCNC(=O)C1CCCN(c2nnc(C)c3c(C)n(-c4ccc(C)cc4)nc23)C1 (configuration not stated)
675 | CN1CCC2(CC1)N=C(c1ccc(Br)cc1)CC(c1cc(Cl)ccc1O)N2 (configuration not stated)
